Reference: patent US10344264B2, “Culturing of human embryonic stem cells at the air-liquid interface for differentiation into pancreatic endocrine cells” (Janssen Biotech, Inc., priority 2012, dated 2019)
Like-named read-outs stand apart in the source and are kept apart here.

Key:
[1] = system: cells of the human embryonic stem cell line H1; details: air-liquid interface, 1000 nM ALK5 inhibitor in Stages 5 and 6
Procedure: Cells of the human embryonic stem cell line H1 (passage 40) were seeded as single cells at 1×10^5 cells/cm^2 on […] ™ (1:30 dilution; BD Biosciences, NJ)-coated dishes in a media comprising DMEM-F12 (Invitrogen, Ca), GlutaMax™ (1:100 dilution, Invitrogen), 0.25 mM ascorbic acid (Sigma, MO), 100 ng/ml of FGF2 (R & D systems, MN), 1 ng/ml of TGF-β (R & D systems), ITS-X (1:100 dilution), 2% fatty-acid free BSA (Lampire, PA), and 20 ng/ml of IGF-1 (R & D systems), supplemented with 10 μM of Y27632 (Rock inhibitor, Catalog No. Y0503, Sigma-Aldrich). Forty-eight hours post-seeding, cultures were washed in incomplete PBS (phosphate buffered saline without Mg or Ca). The cells were then differentiated according to the following protocol: • a. Stage 1 (3 days): Cells were cultured for one day in MCDB-131 medium (Invitrogen Catalog No. 10372-019) supplemented with 2% fatty acid-free BSA (Proliant, Catalog No. 68700); 0.0012 g/ml sodium bicarbonate (Sigma-Aldrich, Catalog No. S3187); 1× GlutaMax™ (Invitrogen, Catalog No. 35050-079); 4.5 mM D-glucose (Sigma-Aldrich, Catalog No. G8769); 100 ng/ml GDF8 (R&D Systems); and 1 μM MCX compound. Cells were then cultured for an additional day in MCDB-131 medium supplemented with: 2% fatty acid-free BSA; 0.0012 g/ml sodium bicarbonate; 1× GlutaMax™; 4.5 mM D-Glucose; 100 ng/ml GDF8; and 0.1 μM MCX compound. […]

[2] = system: cells of the human embryonic stem cell line H1
Procedure: Cells of the human embryonic stem cell line H1 (passage 40) were seeded as single cells at 1×10^5 cells/cm^2 on […] ™ (1:30 dilution; BD Biosciences, NJ)-coated dishes or Matrigel-coated filter inserts (Millipore PIHT 30R 48) in a media comprising of DMEM-F12 (Invitrogen, Ca), Glutamax (1:100 dilution, Invitrogen), 0.25 mM ascorbic acid (Sigma, MO), 100 ng/ml of FGF2 (R & D systems, MN), 1 ng/ml of TGF-B (R & D systems), ITS-X (1:100 dilution), 2% fatty-acid free BSA (Lampire, PA), and 20 ng/ml of IGF-1 (R & D systems), supplemented with 10 μM of Y27632 (Rock inhibitor, Catalog No. Y0503, SigmaAldrich, St. Louis, Mo.). Forty-eight hours post seeding, cultures were washed in incomplete PBS (phosphate buffered saline without Mg or Ca). The cells were then differentiated according to the following protocol: • a) Stage 1 (3 days): Cells were cultured for one day in MCDB-131 medium (Invitrogen Catalog No. 10372-019) supplemented with 2% fatty acid-free BSA (Proliant Catalog No. 68700), 0.0012 g/ml sodium bicarbonate (SigmaAldrich Catalog No. S3187), 1× GlutaMax™ (Invitrogen Catalog No. 35050-079), 4.5 mM D-Glucose (SigmaAldrich Catalog No. G8769), 100 ng/ml GDF8 (R&D Systems) and 1 μM MCX compound. Cells were then cultured for an additional day in MCDB-131 medium supplemented with 2% fatty acid-free BSA, 0.0012 g/ml sodium bicarbonate, 1× GlutaMax™, 4.5 mM D-Glucose, 100 ng/ml GDF8, and 0.1 μM MCX compound. […]

[3] = system: cells of the human embryonic stem cell line H1; remark: listed apart in the source
From the text: At Stage 4 and subsequent cultures, mRNA was collected for PCR analysis of relevant pancreatic endoderm/endocrine genes. Total RNA was extracted with the RNeasy® Mini Kit (Qiagen; Valencia, Calif.) and reverse-transcribed using a High Capacity cDNA Reverse Transcription Kit (Applied Biosystems, Foster City, Calif.) according to manufacturers' instructions. cDNA was amplified using Taqman Universal Master Mix and Taqman Gene Expression Assays which were pre-loaded onto custom Taqman Arrays (Applied Biosystems).
Cells were then cultured for an additional day in MCDB-131 medium supplemented with 2% fatty acid-free BSA, 0.0012 g/ml sodium bicarbonate, 1× GlutaMax™, 4.5 mM D-Glucose, 100 ng/ml GDF8, and 0.1 μM MCX compound. […]

[4] = system: cells of the human embryonic stem cell line H1; details: air-liquid interface; mRNA at Stage 6 day 5 and day 8
Procedure: Cells of the human embryonic stem cell line H1 (passage 42) were seeded as single cells at 1×10^5 cells/cm^2 on […] ™ (1:30 dilution; BD Biosciences, NJ)-coated dishes in a media comprising of DMEM-F12 (Invitrogen, Ca), GlutaMax™ (1:100 dilution, Invitrogen), 0.25 mM ascorbic acid (Sigma, MO), 100 ng/ml of FGF2 (R & D systems, MN), 1 ng/ml of TGF-β (R & D systems), ITS-X (1:100 dilution), 2% fatty-acid free BSA (Lampire, PA), and 20 ng/ml of IGF-1 (R & D systems), supplemented with 10 μM of Y27632 (Rock inhibitor, Catalog No. Y0503, Sigma). Forty-eight hours post-seeding, cultures were washed in incomplete PBS (phosphate buffered saline without Mg or Ca). The cells were then differentiated according to the following protocol: • a) Stage 1 (3 days): Cells were cultured for one day in MCDB-131 medium (Invitrogen Catalog No. 10372-019) supplemented with 2% fatty acid-free BSA (Proliant Catalog No. 68700), 0.0012 g/ml sodium bicarbonate (Sigma-Aldrich Catalog No. S3187); 1× GlutaMax™ (Invitrogen Catalog No. 35050-079); 4.5 mM D-glucose (Sigma-Aldrich Catalog No. G8769); 100 ng/ml GDF8 (R&D Systems); and 1 μM MCX compound. Cells were then cultured for an additional day in MCDB-131 medium supplemented with 2% fatty acid-free BSA, 0.0012 g/ml sodium bicarbonate, 1× GlutaMax™, 4.5 mM D-glucose, 100 ng/ml GDF8, and 0.1 μM MCX compound. […]

[5] = system: cells of the human embryonic stem cell line H1; assay: Real-time PCR of Stage 6 cells at the air-liquid interface with gamma secretase inhibitor XX (Example 12); assay type: cell-based; details: 100 nM to 5000 nM at Stage 6; mRNA at Stage 6 day 4 and day 8
Procedure: This example highlights that NOTCH inhibitors, such as gamma secretase inhibitors, further enhance maturation markers of β cells while retaining expression of NKX6.1.
At Stage 6, various doses (100 nM to 5000 nM) of gamma Secretase inhibitor XX (EMD, #565789) were tested. mRNA was collected at Stage 6 day 4 and Stage 6 day 8. FIG. 21 depicts the PCR data for key β cell maturation markers along with pancreatic progenitor markers.

| Compound | expression of glucagon [1] | expression of insulin [1] | co-expression of NKX6.1 and chromogranin-A (immunostaining) ([2]; Stage 6 cells at the air-liquid interface, 1 micro molar inhibitor) | number of NKX6.1 positive cells co-expressing insulin or chromogranin-A ([2]; filter inserts at the air-liquid interface) | number of NKX6.1 positive cells co-expressing insulin or chromogranin-A ([2]; same protocol on traditional monolayer cultures) | insulin expression at Stage 6 as compared to Stage 5 ([3]; cultures at the air-liquid interface) | insulin expression at Stage 6 as compared to Stage 5 ([3]; planar cultures treated at Stage 5 and Stage 6) | expression of MAFA on removal of the inhibitor at Stage 6 [4] | Amylin expression [5] | MAFA expression [5] | NKX6.1 expression [5] | PTF1a expression [5] | SOX9 expression [5] | insulin expression [5] |
| --- | --- | --- | --- | --- | --- | --- | --- | --- | --- | --- | --- | --- | --- | --- |
| Cc1cccc(-c2[nH]ncc2-c2ccc3ncccc3n2)n1 [ALK5 inhibitor II] | significantly enhanced | significantly enhanced | co-expression of NKX6.1 and chromogranin-A | significantly enhanced | failed to show significant numbers | enhancement | drop | dramatic drop | – | – | – | – | – | – |
| C[C@H](NC(=O)Cc1cc(F)cc(F)c1)C(=O)N[C@@H]1C(=O)N(C)c2ccccc2-c2ccccc21 [gamma Secretase inhibitor XX] | – | – | – | – | – | – | – | – | significantly upregulated | significantly upregulated | not significantly affected | significantly down regulated | significantly down regulated | significantly upregulated |
